{
  "source": "patent US20250019703A1",
  "about": "“PHARMACEUTICAL COMPOSITION FOR PREVENTION OR TREATMENT OF BLOOD CANCER COMPRISING SURF4 INHIBITOR” (PUSAN NATIONAL UNIVERSITY INDUSTRY-UNIVERSITY COOPERATION …, priority 2021, published 2025)",
  "key": {"[1]": {"system": "THP1, HL60, and K562 cells", "experiment": "Annexin V/7AAD apoptosis after paclitaxel treatment", "format": "cell-based, human", "details": "paclitaxel 0.5 μM alone, FIG. 5", "description": "(§1) Apoptosis was measured after treating SURF4 shRNA-transfected THP1, HL60, and K562 cells with paclitaxel. The transfected SURF4 shRNA was the same as in Example 1-(1). Specifically, the concentration of paclitaxel treated in the THP1, HL60, and K562 cells was 0.5 μM, and after transfecting the cells with SURF4 shRNA, the cells were treated with paclitaxel 7 to 10 days later. Afterward, cells of each type were collected and suspended with an Annexin V binding buffer, and then Annexin V-FITC and 7AAD were added to perform measurement using a FACS flow cytometer."}, "[2]": {"system": "THP1, HL60, and K562 cells", "experiment": "Annexin V/7AAD apoptosis after tunicamycin treatment", "format": "cell-based, human", "details": "tunicamycin 10 μM alone, FIG. 7", "description": "as §1, with “tunicamycin.” for “paclitaxel.”, “tunicamycin” for “paclitaxel”, “10” for “0.5”"}, "[3]": {"system": "STING in myeloid leukemia cells", "experiment": "Apoptosis and pTBK1 expression after cGAMP treatment", "format": "cell-based", "details": "cells treated with cGAMP; FIG. 15B", "description": "Based on a report that STING, one of the endoplasmic reticulum membrane proteins, induces apoptosis and binds to SURF4 and STAT6, cells were treated with cGAMP, which induces STING. Specifically, cells were collected and lysed with a lysis buffer to extract proteins, which were then separated on a 10% SDS-PAGE gel and transferred to a membrane. pJNK, JNK, BAX, caspase 9, cleaved caspase 9, caspase 3, cleaved caspase 3, PARP, IRE1α, GRP78, PERK, pelF2α, elF2α, ATF4, CHOP, pSTAT6, STAT6, STING, pTBK1, and actin antibodies were each added, allowed to stand at 4° C. for 16 hours, and then a secondary antibody was added and allowed to stand at room temperature for one hour. Afterward, the resulting mixture was allowed to react with an ECL reagent, and the ECL was measured using a chemiluminescence image analyzer."}, "[4]": {"system": "pSTAT6 in THP1 and HL60 cells", "experiment": "Western blot of pSTAT6 after IL4 treatment", "format": "cell-based, human", "details": "IL4 5 ng/ml for 60 minutes, FIG. 12", "description": "Based on a report that apoptosis is induced by pSTAT6 through IL4 in leukemia cells, the expression of pSTAT6 was confirmed by treating a leukemia cell line with IL4, which induces STAT6. Specifically, THP1 and HL60 cells transfected with 6 μg of SURF4 shRNA were lysed by treating them with IL4 (5 ng/ml) for 60 minutes, and then Western blot was performed, and the SURF4 expression in the THP1 and HL60 cells transfected with SURF4 shRNA was measured by qRT-PCR. The cells were lysed with a lysis buffer to extract proteins, which were then separated on a 10% SDS-PAGE gel and transferred to a membrane. pJNK, JNK, BAX, caspase 9, cleaved caspase 9, caspase 3, cleaved caspase 3, PARP, IRE1α, GRP78, PERK, pelF2α, elF2α, ATF4, CHOP, pSTAT6, STAT6, STING, pTBK1, and actin antibodies were each added, allowed to stand at 4° C. for 16 hours, and then a secondary antibody was added and allowed to stand at room temperature for one hour. Afterward, the resulting mixture was allowed to react with an ECL reagent, and the ECL was measured using a chemiluminescence image analyzer. In addition, RNA was extracted from the cells using an RNA extraction kit, and cDNA was synthesized from the RNA using a cDNA synthesis kit. A qRT-PCR analysis was performed using the synthesized cDNA, SURF4 primers, and a SYBR green."}},
  "data": [
    {"molecule": "CC(=O)O[C@H]1C(=O)[C@@]2(C)[C@H]([C@H](OC(=O)c3ccccc3)[C@]3(O)C[C@H](OC(=O)[C@H](O)[C@@H](NC(=O)c4ccccc4)c4ccccc4)C(C)=C1C3(C)C)[C@]1(OC(C)=O)CO[C@@H]1C[C@@H]2O", "note": "[paclitaxel]", "values": [
      {"measurement": "apoptosis", "setting": "[1]", "result": "induced apoptosis"}
    ]},
    {"molecule": "tunicamycin", "values": [
      {"measurement": "apoptosis", "setting": "[2]", "result": "induced apoptosis"}
    ]},
    {"molecule": "Nc1nc2c(ncn2[C@@H]2O[C@@H]3COP(=O)(O)O[C@H]4[C@@H](O)[C@H](n5cnc6c(N)ncnc65)O[C@@H]4COP(=O)(O)O[C@@H]2[C@@H]3O)c(=O)[nH]1", "note": "[cGAMP, cyclic guanosine monophosphate-adenosine monophosphate]", "values": [
      {"measurement": "pTBK1 expression", "setting": "[3]", "result": "pTBK1 downstream of STING increased"}
    ]},
    {"molecule": "IL4: interleukin-4, which induces STAT6 / the expression of pSTAT6 (protein, UniProt P05112 25-153, looked up) Interleukin-4: HKCDITLQEIIKTLNSLTEQKTLCTELTVTDIFAASKNTTEKETFCRAATVLRQFYSHHEKDTRCLGATAQQFHRHKQLIRFLKRLDRNLWGLAGLNSCPVKEANQSTLENFLERLKTIMREKYSKCSS", "values": [
      {"measurement": "pSTAT6 expression (Western blot)", "setting": "[4]", "result": "pSTAT6 increased in both the control cells and the cells transfected with SURF4 shRNA"}
    ]}
  ]
}
